One compound from patent US9506056B2, “Nucleic acid functionalized nanoparticles for therapeutic applications” (NORTHWESTERN UNIVERSITY, priority 2006, dated 2016) can be followed below.

The data set concerns A549 cells. Briefly: Cell viability of dox-treated A549 cultures with oligonucleotide-modified nanoparticles. Format: cell-based, human. Conditions: dox alone at 25 μm dox concentration. The protocol: As proof of the oligonucleotide-modified gold nanoparticle for drug control concept, the anticancer drug doxorubicin hydrochloride (dox) in a lung cancer cell model (A549) was investigated. […] However, when an oligonucleotide functionalized nanoparticle agent containing a non-specific sequence is added to the culture at the same point as the drug molecule, a dose-dependant recovery of cell viability is observed (cells recover to approximately 80% viable at 3 nM concentration of nanoparticles). The dox-treated cells were then examined in the presence of an anti-survivin oligonucleotide modified gold nanoparticle conjugate. […] In these studies, the anti-survivin containing nanoparticle agent added to the culture at the same point as the drug molecule reduce cell viability to 45% at low concentrations and recover cell viability to 75% at high concentrations (FIG. 3).

Where a name gives a salt, the structure may show the parent alone.

Turning to `COc1cccc2c1C(=O)c1c(O)c3c(c(O)c1C2=O)C[C@@](O)(C(=O)CO)C[C@@H]3O[C@H]1C[C@H](N)[C@H](O)[C@H](C)O1` [dox, doxorubicin hydrochloride], the cell viability entry is “approximately 60%”.
